Source: patent US6624149B2, “Method for nucleic acid transfection of cells” (Genteric, Inc., priority 2000, dated 2003)

Key:
Type in all cases: in vivo
mouse lung = experiment: Intra-tracheal transfection of mouse lung, luciferase assay; conditions: 3.6 mM zinc chloride
Protocol: Male BALB/c mice (specific pathogen free, Charles River Laboratories; 20-21 g) were used in the transfection experiments. Anesthesia was provided for all invasive procedures; animals were terminated by intraperitoneal administration of pentobarbital according to standard protocols. Neck dissections were performed on anesthetized mice using a one centimeter incision through the skin of the anterior neck. […] For comparison, a free nucleic acid solution (150 μl containing 512 μg of DNA) was prepared in sterile water and delivered in a similar manner. After injection, the point of incision was repaired using staples. The mice were terminated within 48 hours after treatment. […] An experiment was conducted to determine if transition metals promote in vivo transfection of the mouse lung. […] The final zinc chloride concentration of this mixture was 3.6 mM. […] For comparison, 150 μl of a DNA solution (354 μg DNA) was also administered to intratracheally to the lungs of four mice. At 48 hours post administration, the tracheal/lung block was dissected and assayed for luciferase specific activity as described above.

rat pancreas = experiment: Intraductal transfection of rat pancreas, luciferase assay; conditions: 64 μg pCMV.FOX.Luc-2 in 100 μL into bile duct, 48 hours, four trials; ZnCl2 absent or 1.8 mM
Protocol: Male Sprague-Dawley rats (weighing 260-280 g) were fasted the night prior to treatment. Care was taken to ensure that this procedure was conducted under sterile conditions. After anesthesia (see above) and laparotomy, the distal end of the bile duct (at the level of the duodenum) was ligated, the proximal end of the pancreas (at the porta hepatis level) was temporary blocked by a ligature, a PE-10 tubing was inserted through an incision of the bile duct near the duodenum. 0.1 ml of the selected nucleic acid/transition metal enhancer mixture was injected in a retrograde manner into the duct. Successful injection was confirmed by visible swelling of the gland. For administration to the liver, the proximal portion of the bile duct (prior to its entry into pancreatic tissue) was injected. After DNA delivery, a by-pass operation was done by directly introducing the bile flow to duodenum through the exterior end of the PE-10 tubing. After carefully ensuring the ligatures were secure, 1 ml of ampicillin (15 mg/ml) was injected into the peritoneal cavity and the incision was closed in one layer, combining fascia and skin with 3-0 silk suture. The closed incision was washed with dilute ethanol and the animal was monitored under a heat lamp until it was fully awake and ambulatory. The […] were terminated 48 hours after treatment. […]

[1] = test system: rat salivary gland (submandibular gland); experiment: Intraductal transfection of rat salivary gland with pCMV.FOX.Luc-2, luciferase assay; conditions: 48 hours
Protocol: Nucleic acid/transition metal enhancer mixtures were prepared by sequentially adding deionized water or a buffered solution, DNA, and a desired transition metal enhancer to a polystyrene tube with mixing. “Free” (i.e., “Naked”) DNA controls were prepared by sequentially adding DNA to water or a buffered solution
Male Sprague-Dawley rats (260-280 g) were fasted the night prior to treatment. After administration of the anesthesia (see Section 6.1.3), both right and left salivary gland ducts (specifically, Wharton's duct) were cannulated with fine polyurethane tubing (i.d. 0.005″) and cemented into the desired location. Atropine was then administered subcutaneously (0.5 mg/kg) and, after eight minutes, 50 μl of the nucleic acid/transition metal enhancer mixture was injected, infused, instilled or administered at the ductal orifice or directly into the duct at any point along its length. See Goldfine, Nature Biotechnology 15:1378, 1997.
Regardless of whether a liposome/transition metal/nucleic acid mixture or a nucleic acid/transition metal enhancer mixture was delivered, the tubing and mixture was kept in place for ten additional minutes after application of the mixture prior to removal. At 48 hours post atropine administration, the rats were anesthetized by intraperitoneal injection of pentobarbital (50 mg/kg). The right and left submandibular glands were surgically removed, and the tissues were assayed for any observable reporter gene (luciferase of hGH) expression using the methods described below.
The presently claimed invention describes a new method using a combination of a transition metal enhancer and a nucleic acid of interest for gene delivery. The present invention provides a method which may enhance gene expression by improving the efficiency of gene delivery. This change in gene expression can be quantitated using various assays, such as the luciferase assay. de Wet et al., Molec. Cell Biol. 7:725, 1987. In various experiments described herein, the right and left submandibular glands were removed from the male Sprague-Dawley rats at 48 hours post administration of the pCMV.FOX.Luc-2 containing solution. In additional experiments other organs, such as the rat lungs, were used.
In experiments in which submandibular glands were tested, the amount of luciferase present in the right and left submandibular gland of each male Sprague-Dawley rat was measured independently and treated as separate, individual experiments (e.g., trials) because the amount of luciferase expressed by one submandibular gland is independent of the amount of luciferase expressed in the other submandibular gland. Therefore, each submandibular gland was independently lysed in lysis buffer (1.0 ml buffer per 0.1 g tissue) to create a lysis homogenate. The lysis buffer contained 100 mM K2PO4 pH 7.0, 1 mM dithiothreitol, and 1% Triton X-100. A 100 μl aliquot of lysis homogenate from each submandibular gland was analyzed for luciferase activity (de Wet et al., Molec. Cell Biol. 7:725, 1987) using a Monolight 2010 luminometer (Analytical Luminescence Laboratories). Accordingly, luciferase light emissions from each aliquot of the lysis homogenate were measured over a ten second period.
Activity was expressed as relative light units, values collectively representing the assay conditions, luciferase concentration, luminometer photomultiplier tube sensitivity and background. Using well known techniques, the luciferase light units may be converted, for example, to picograms of luciferase protein. See, e.g., Felgner et al., U.S. Pat. No. 5,580,899 at Example 13. All experiments were performed in duplicate. In experiments using submandibular glands, data from each individual submandibular gland lysis homogenate is reported as a single trial.

## [Cl-].[Cl-].[Zn+2] [ZnCl2, zinc chloride]
Mouse lung
  Improvement of transfection activity relative to the "free" DNA solution: 5 fold
Rat pancreas
  average luciferase activity: 22028 relative luciferase light units per 10 mg of pancreatic tissue
[1]; Table 2, metal chloride 0.9 mM, 32 μg DNA in 50 μl, eight glands
  Average relative light units: 63842 relative light units
[1]; Table 3, metal chloride 0.9 mM, 32 μg DNA in 50 μl, Tris-HCl/EDTA, eight glands
  Average relative light units: 5685 relative light units
[1]; Table 6, zinc 3.6 mM, 128 μg DNA in 50 μl
  Average relative light units: 243362 relative light units
[1]; Table 7, ZnCl2 3.6 mM, pH 5.5, 128 μg DNA in 50 μl
  Average relative light units: 252446 relative light units
[1]; Table 7, ZnCl2 3.6 mM, pH 6.5, 128 μg DNA in 50 μl
  Average relative light units: 196002 relative light units
[1]; Table 7, ZnCl2 3.6 mM, pH 7.5, 128 μg DNA in 50 μl
  Average relative light units: 260340 relative light units
[1]; Table 7, ZnCl2 3.6 mM, pH 8.5, 128 μg DNA in 50 μl
  Average relative light units: 277958 relative light units
